Experiments:
[1] = Metabolic stability, incubation with human liver cytosol; type: in vitro ADME; settings: 1 µM test compound, 1 mg/mL protein
rCYP2C8 = target: T1, rCYP2C8 (Homo sapiens, UniProt P10632); experiment: Metabolic stability / reaction phenotyping with recombinant human CYP2C8; settings: 1 µM test compound; 100 pmol/mL; 30 min
T1 sequence (P10632 1-490): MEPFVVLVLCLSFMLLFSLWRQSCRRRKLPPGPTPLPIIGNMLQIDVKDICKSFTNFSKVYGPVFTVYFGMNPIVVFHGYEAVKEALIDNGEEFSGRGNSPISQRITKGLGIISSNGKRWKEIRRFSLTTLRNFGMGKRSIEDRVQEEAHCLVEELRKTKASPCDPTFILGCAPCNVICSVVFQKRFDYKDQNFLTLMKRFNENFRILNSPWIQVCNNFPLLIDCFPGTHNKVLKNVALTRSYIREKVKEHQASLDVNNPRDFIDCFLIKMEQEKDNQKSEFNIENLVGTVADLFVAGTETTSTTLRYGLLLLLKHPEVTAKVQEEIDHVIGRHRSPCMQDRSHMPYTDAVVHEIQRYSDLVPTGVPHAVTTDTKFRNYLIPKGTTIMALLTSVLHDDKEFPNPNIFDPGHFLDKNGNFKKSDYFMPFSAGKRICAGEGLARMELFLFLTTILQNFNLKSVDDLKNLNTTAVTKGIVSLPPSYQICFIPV

rCYP1A2 = target: T2, rCYP1A2 (Homo sapiens, UniProt P05177); experiment: Metabolic stability / reaction phenotyping with recombinant human CYP1A2; settings: 1 µM test compound; 100 pmol/mL; 30 min
T2 sequence (P05177 1-516): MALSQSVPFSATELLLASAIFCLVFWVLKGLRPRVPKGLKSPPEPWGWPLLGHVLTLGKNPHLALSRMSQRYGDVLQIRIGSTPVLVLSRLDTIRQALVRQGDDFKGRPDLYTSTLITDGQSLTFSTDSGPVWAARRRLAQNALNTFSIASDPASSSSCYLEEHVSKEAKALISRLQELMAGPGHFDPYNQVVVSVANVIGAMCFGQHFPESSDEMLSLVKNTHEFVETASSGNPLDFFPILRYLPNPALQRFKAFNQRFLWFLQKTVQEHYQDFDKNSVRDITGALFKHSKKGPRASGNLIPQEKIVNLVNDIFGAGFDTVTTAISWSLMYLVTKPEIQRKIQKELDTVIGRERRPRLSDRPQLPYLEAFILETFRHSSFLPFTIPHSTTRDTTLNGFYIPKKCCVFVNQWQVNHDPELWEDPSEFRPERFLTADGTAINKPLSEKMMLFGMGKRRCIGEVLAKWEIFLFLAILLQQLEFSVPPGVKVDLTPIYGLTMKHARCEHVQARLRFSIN

CYP2C8 = target: T3, CYP2C8 (Homo sapiens, UniProt P10632); experiment: CYP inhibition in human liver microsomes, CYP2C8; settings: human, human liver microsomes, pH 7.4, probe paclitaxel
T3 sequence (P10632 1-490): T1 sequence (P10632 1-490)

rCYP3A4 = rCYP3A4 (Homo sapiens, UniProt P08684); settings: human, recombinant enzyme, 0.5 h, pH 7.4
[2] = Metabolic stability, incubation with human liver microsomes; settings: 1 µM test compound, 0.5 mg/mL protein
CYP1A2 = target: T4, CYP1A2 (Homo sapiens, UniProt P05177); experiment: CYP inhibition in human liver microsomes, CYP1A2; settings: human, human liver microsomes, pH 7.4, probe phenacetin, Percent inhibition, positive control inhibitor, CYP1A2, concentration tested 20 nM
T4 sequence (P05177 1-516): T2 sequence (P05177 1-516)

Chain of rCYP3A4 (P08684 whole entry): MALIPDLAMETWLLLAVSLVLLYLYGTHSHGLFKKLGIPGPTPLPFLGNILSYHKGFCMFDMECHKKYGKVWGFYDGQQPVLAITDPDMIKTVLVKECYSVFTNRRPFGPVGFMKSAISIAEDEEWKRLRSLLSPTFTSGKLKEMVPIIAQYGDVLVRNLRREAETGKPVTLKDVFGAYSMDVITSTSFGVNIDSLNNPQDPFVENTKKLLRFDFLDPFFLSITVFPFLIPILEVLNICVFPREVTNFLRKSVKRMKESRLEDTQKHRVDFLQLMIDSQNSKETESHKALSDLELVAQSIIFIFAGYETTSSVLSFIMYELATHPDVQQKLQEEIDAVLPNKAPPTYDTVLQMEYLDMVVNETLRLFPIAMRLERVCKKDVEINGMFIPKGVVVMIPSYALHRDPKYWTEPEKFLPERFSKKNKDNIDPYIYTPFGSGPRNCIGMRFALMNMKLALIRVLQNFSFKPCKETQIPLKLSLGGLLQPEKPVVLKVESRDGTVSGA

CN(Cc1cnc2nc(N)nc(N)c2n1)c1ccc(C(=O)N[C@@H](CCC(=O)O)C(=O)O)cc1 [Methotrexate, reference compound]
% Metabolized at 30 min Incubation with Human Liver Fractions/Enzymes Cytosol [1]: 3.18%

CC(=O)O[C@H]1C(=O)[C@@]2(C)[C@H]([C@H](OC(=O)c3ccccc3)[C@]3(O)C[C@H](OC(=O)[C@H](O)[C@@H](NC(=O)c4ccccc4)c4ccccc4)C(C)=C1C3(C)C)[C@]1(OC(C)=O)CO[C@@H]1C[C@@H]2O [Paclitaxel, paclitaxel]
% Metabolized at 30 min Incubation with Human Liver Fractions/Enzymes rCYP2C8 (rCYP2C8): 11.21%

CCOc1ccc(NC(C)=O)cc1 [Phenacetin, phenacetin]
% Metabolized at 30 min Incubation with Human Liver Fractions/Enzymes rCYP1A2 (rCYP1A2): 91.43%

c1ccc2cnncc2c1 [Phthalazine, phthalazine, reference compound]
% Metabolized at 30 min Incubation with Human Liver Fractions/Enzymes Cytosol [1]: 90.89%

CN(CCOc1ccc(CC2SC(=O)NC2=O)cc1)c1ccccn1 (centres unmarked) [Rosiglitazone, reference compound]
inhibition at 25 µM (CYP2C8): 69.2%

C[C@]12CC[C@H]3[C@@H](CCC4=CC(=O)CC[C@@]43C)[C@@H]1CC[C@@H]2O [Testosterone, testosterone, reference compound]
% Metabolized at 30 min Incubation with Human Liver Fractions/Enzymes rCYP3A4 (rCYP3A4): 85.13% | % Metabolized at 30 min Incubation with Human Liver Fractions/Enzymes HLM [2]: 90.74%

O=c1cc(-c2ccccc2)oc2c1ccc1ccccc12 [α-Nepthoflavone, α-naphthoflavone, reference compound]
inhibition at 20 nM (CYP1A2): 62.4%

Source: PMC6416464 (Drug Metabolism Letters, 2018)
